From patent US11918662B2, “Heterocyclic compounds and imaging agents for imaging huntingtin protein” (CHDI Foundation, Inc., priority 2020, dated 2024) come the findings set out here.

The target of this test is T1, MBP-HTT(1-89)Q46-His(6×) (“Exon1-Q46”) protein aggregates (Homo sapiens, UniProt P42858, INS38QQQQQQQQQQQQQQQQQQQQQQQQQ).
T1 construct: MBP-HTT(1-89)Q46-His(6×); His(6×) (C); made in house
T1 sequence (P42858 with tags, fused parts or gaps with the stated changes limits assumed): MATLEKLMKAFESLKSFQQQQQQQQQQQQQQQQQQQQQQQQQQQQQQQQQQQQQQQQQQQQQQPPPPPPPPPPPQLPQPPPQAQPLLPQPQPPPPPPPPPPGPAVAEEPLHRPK
The test can be described thus: Exon1-Q46 Radioligand Binding Assay. The following applies: displacement of 0.3 nM [3H3-methyl]-5-((5-methoxypyridin-2-yl)methoxy)-2-(pyrazin-2-yl)benzo[d]oxazole from 1 μM aggregated Exon1-Q46, 60 minutes at 37° C.; read-out: Potency Range (IC50).
`CC1CCC(N(C)C(=O)CCCn2c(=O)c3cccn3c3ccc(F)cc32)CC1` (stereo not drawn) [Example 1-46]: the IC50 is < 100 nM.
As for `Cc1ccc(C(=O)NCCn2c(=O)c3cccn3c3ccc(F)cc32)cc1` [Example 12-1, N-[2-(7-Fluoro-4-oxo-pyrrolo[1,2-a]quinoxalin-5-yl)ethyl]-4-methyl-benzamide], the figure is < 100 nM.
Regarding `CCNC(=O)CCCn1c(=O)c2cccn2c2ccc(F)cc21` [Example 1-34], the IC50 is 100 to 500 nM.
With `Cc1ccc(NC(=O)CCNc2cc(F)ccc2-n2cccn2)cc1` [Example 3-69], the half-inhibitory concentration (IC50) was in the range of 100 to 500 nM.
With `CCNC(=O)CCn1c(=O)c2cccn2c2ccc(F)cc21` [Example 3-38], the IC50 was < 100 nM.
`Cn1ncc2c(=O)n(CCC(=O)N3CCc4ccccc4C3)c3cc(F)ccc3c21` [Example 9-14]: the IC50 was < 100 nM.
As for `O=C(CCCn1c(=O)c2cccn2c2ccccc21)NC1CCCCCC1` [Example 5-15], the 50% inhibitory concentration (IC50) lay within 100 to 500 nM.
For `Cn1ncc2c(=O)n(CCC(=O)Nc3cc(Cl)ccc3F)c3cc(F)ccc3c21` [Example 9-15], the IC50 is < 100 nM.
In the case of `CC1CCC(N(C)C(=O)CCn2c(=O)c3cccn3c3ccc(F)cc32)CC1` (stereo not drawn) [Example 3-45], the IC50 is < 100 nM.
Regarding `O=C(CCCn1c(=O)c2cccn2c2ccc(F)cc21)Nc1ccccc1Cl` [Example 1-25], the IC50 was < 100 nM.
With `C[C@H]1CN(C(=O)CCCn2c(=O)c3cccn3c3ccc(F)cc32)C[C@H](C)O1` [Example 1-4], the concentration for half-maximal inhibition (IC50) is < 100 nM.
Regarding `COc1ccc(NC(=O)CCn2c(=O)c3cccn3c3ccc(F)cc32)cn1` [Example 3-12], the IC50 is < 100 nM.
Regarding `O=C(CCn1c(=O)c2cccn2c2ccc(F)cc21)N1CCc2cccnc2C1` [Example 3-56], the IC50 is < 100 nM.
For `O=C(CCn1c(=O)c2cn[nH]c2c2ccc(F)cc21)Nc1ccc(F)cc1F` [Example 19-1, N-(2,4-Difluorophenyl)-3-(7-fluoro-4-oxo-1H-pyrazolo[4,3-c]quinolin-5-yl)propanamide], the IC50 was < 100 nM.
Consider `O=C(Cn1c(=O)c2cccn2c2ccc(F)cc21)N1CCCCC1` [Example 29-3], for which the IC50 is < 100 nM.
With `C[C@@H]1CN(C(=O)CCn2c(=O)c3cnn(C)c3c3ccc(F)cc32)C[C@H]1C` [Example 9-24], the IC50 was < 100 nM.
With `O=C(CCn1c(=O)c2cccn2c2ccc(F)cc21)NC1CCCCC1` [Example 3-34], the IC50 is < 100 nM.
For `COc1ncccc1NC(=O)CCn1c(=O)c2cnn(C)c2c2ccc(F)cc21` [Example 9-1], the IC50 is < 100 nM.
`COc1ccc(NC(=O)CCCn2c(=O)c3cccn3c3ccncc32)nc1` [Example 2-5]: the IC50 is < 100 nM.
As for `COc1ccc(NC(=O)CCCn2c(=O)c3cccn3c3ccc(F)cc32)nc1` [Example 1-43], the figure is < 100 nM; as for `O=C(CCn1c(=O)c2cccn2c2ccc(F)cc21)N1CCCc2ccccc21` [Example 3-47], < 100 nM; as for `COc1cccc(NC(=O)CCn2c(=O)c3cccn3c3ccc(F)cc32)c1` [Example 3-20], < 100 nM.
Take `COc1ccc(NC(=O)CCn2c(=O)c3c(C)ccn3c3ccc(F)cc32)nc1` [Example 3-60]: the half-inhibitory concentration (IC50) was < 100 nM.
As for `COc1ncccc1NC(=O)CCn1c(=O)c2ccnn2c2ccc(F)cc21` [Example 8-3], the figure is < 100 nM.
As for `COc1cccc(NC(=O)CCn2c(=O)c3cccn3c3ccc(F)cc32)n1` [Example 3-7], the IC50 is < 100 nM.
As to `CN1CCN(C(=O)CCCn2c(=O)c3cccn3c3ccc(F)cc32)CC1=O` [Example 1-41], the IC50 is < 100 nM.
As for `O=C(CCn1c(=O)c2cccn2c2ccc(F)cc21)Nc1ccccc1` [Example 3-22], the figure is < 100 nM.
Regarding `O=C(CCn1c(=O)c2cccn2c2ccc(F)cc21)N1Cc2cccnc2C1` [Example 3-55], the concentration for half-maximal inhibition (IC50) is < 100 nM.
As for `Cc1ccc(NC(=O)CCCn2c(=O)c3cccn3c3ccccc32)cc1` [Example 5-1], the IC50 is < 100 nM.
As for `O=C(CCn1c(=O)c2cccn2c2ccc(F)cc21)N1Cc2ccccc2C1` [Example 3-31], the figure is < 100 nM.
As for `COc1cccc(NC(=O)CCCn2c(=O)c3cccn3c3ccc(OC)cc32)c1` [Example 5-8], the figure is < 100 nM; as for `Cn1ncc2c(=O)[nH]c3cc(F)ccc3c21` [Example 9-22], < 100 nM; as for `Cn1ncc2c(=O)n(CCC(=O)Nc3ccc(F)cc3)c3cc(F)ccc3c21` [Example 9-29], < 100 nM.
As for `O=C(CCCn1c(=O)c2cccn2c2ccc(F)cc21)Nc1ccncc1` [Example 1-16], the figure is < 100 nM; as for `Cn1ncc2c(=O)n(CCC(=O)O)c3cc(F)ccc3c21` [Example 9-31], 500 to 10000 nM; as for `COC1CCC(NC(=O)CCn2c(=O)c3cccn3c3ccc(F)cc32)CC1` (stereo not drawn) [Example 3-29], < 100 nM.
`C[C@@H]1CN(C(=O)CCCn2c(=O)c3cccn3c3ccc(F)cc32)C[C@H](C)O1` [Example 1-5]: the IC50 was < 100 nM.
Regarding `O=C(CCCn1c(=O)c2cccn2c2ccc(F)cc21)N1CCCC1` [Example 1-38], the IC50 was < 100 nM.
As for `COc1ccc(NC(=O)CCn2c(=O)c3cn(C)nc3c3ccc(F)cc32)nc1` [Example 9-28], the IC50 is < 100 nM.
Regarding `Cc1ccc(NC(=O)CCn2c(=O)c3cccn3c3ccc(F)cc32)nc1` [Example 3-24], the IC50 was < 100 nM.
Take `COc1ccc(NC(=O)CCCn2c(=O)c3cccn3c3ncccc32)cc1` [Example 4-2]: the IC50 was < 100 nM.
As for `O=C(CCn1c(=O)c2cccn2c2ccc(F)cc21)N1CCc2cccnc21` [Example 3-53], the figure is < 100 nM; as for `O=C(CCn1c(=O)c2ccnn2c2ccc(F)cc21)Nc1ccc(F)cn1` [Example 8-12], < 100 nM; as for `COc1ccncc1NC(=O)CCn1c(=O)c2cnn(C)c2c2ccc(F)cc21` [Example 9-6], < 100 nM.
`O=C(CCn1c(=O)c2cccn2c2ccc(F)cc21)NCc1ccccc1` [Example 3-28]: the IC50 is < 100 nM.
Turning to `COc1ccncc1NC(=O)CCn1c(=O)c2cccn2c2ccc(F)cc21` [Example 3-10], the IC50 is < 100 nM.
With `O=C(CCCn1c(=O)c2cccn2c2ccc(F)cc21)NCC1CCCCC1` [Example 1-19], the IC50 is < 100 nM.
For `O=C(CCn1c(=O)c2ccnn2c2ccc(F)cc21)N1Cc2cccnc2C1` [Example 8-8], the IC50 is < 100 nM.

Broadly, the IC50 is the concentration needed to halve the response being measured.
